IC50 data for 31 compounds are collected here from patent US20090048258A1, “Amide Compound” (priority 2005, published 2009).

Each structure is given as a SMILES string. A value given as a limit tells only on which side of the number the result lay.

One experiment has as its target T1, Human DGAT1 (Homo sapiens, UniProt O75907).
T1 construct: my translation of the primer: M-G-DYKDDDD-GDRGSSRRR) (N); made in house; host or cells: Sf9 insect cells (recombinant baculovirus BAC-DGAT1, pFASTBAC1); microsome fraction
T1 sequence (O75907 1-488): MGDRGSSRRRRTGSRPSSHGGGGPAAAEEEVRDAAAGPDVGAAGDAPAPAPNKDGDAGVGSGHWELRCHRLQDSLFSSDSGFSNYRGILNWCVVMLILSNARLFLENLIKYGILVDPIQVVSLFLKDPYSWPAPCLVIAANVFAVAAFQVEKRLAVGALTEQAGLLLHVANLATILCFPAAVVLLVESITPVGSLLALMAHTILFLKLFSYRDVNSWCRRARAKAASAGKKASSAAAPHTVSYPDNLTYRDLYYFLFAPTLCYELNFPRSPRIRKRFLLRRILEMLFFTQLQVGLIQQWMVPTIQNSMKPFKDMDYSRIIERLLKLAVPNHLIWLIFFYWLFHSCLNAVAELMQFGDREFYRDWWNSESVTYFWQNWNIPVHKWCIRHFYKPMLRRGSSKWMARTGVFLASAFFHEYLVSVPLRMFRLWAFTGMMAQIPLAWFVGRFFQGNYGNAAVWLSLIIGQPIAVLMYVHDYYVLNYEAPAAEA
Put plainly: DGAT inhibitory activity: [14C]-triglyceride synthesis by DGAT1 high expression Sf9 microsome. Format: biochemical. The note with it: Table 1, 25 μM dioleoylglycerol, 25 μM [14C]-Oleoyl-CoA, 32° C., 15 min, read-out: DGAT inhibitory activity (according to IC50). The procedure, abridged:
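DGAT1 was overexpressed from recombinant baculovirus in Sf9 cells, and microsomes from these cells were the enzyme source. Reactions ran in 100 mM Tris-HCl pH 7.5, 250 mM sucrose, 150 mM MgCl2 and 0.01% BSA. [14C]-triglyceride was extracted into chloroform, separated by TLC and quantified by imaging plate, with inhibition calculated against control and blank (no microsome) counts.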
Consider `CCOc1ccc(C(=O)CCC(=O)Nc2nc(-c3ccccc3)c(Cc3ccccc3)s2)cc1Br` [Example 25, N-(5-benzyl-4-phenyl-1,3-thiazol-2-yl)-4-(3-bromo-4-ethoxyphenyl)-4-oxobutanamide], for which the IC50 is not above 10 nM.
Same read-out and setting: the value for `CCOc1cccc(C(=O)CCC(=O)Nc2cc(-c3ccccc3)c(Cc3ccccc3)s2)c1` [Example 45, N-(5-benzyl-4-phenyl-2-thienyl)-4-(3-ethoxyphenyl)-4-oxobutanamide] was 50 to 500 nM; that for `CCOc1ccc(C(=O)CCC(=O)Nc2cc(OCCC(C)C)cc(-c3ccccc3)n2)cc1OCC` [Example 41, 4-(3,4-diethoxyphenyl)-N-(4-(3-methylbutoxy)-6-phenylpyridin-2-yl)-4-oxobutanamide] was 50 to 500 nM.
Same read-out and setting: the value for `CCOc1ccc(C(=O)CCC(=O)Nc2nc(-c3ccccc3)c(Cc3ccccc3)s2)cc1/C=C/C(=O)O` [Example 31, (2E)-3-(5-{4-[(5-benzyl-4-phenyl-1,3-thiazol-2-yl)amino]-4-oxobutanoyl}-2-ethoxyphenyl)acrylic acid] was 50 to 500 nM.
Consider `CCOc1ccc(C(=O)NCCNC(=O)c2cc(-c3ccccc3)n(-c3ccc(OC)cc3)c2C)cc1` [Example 64, N-{2-[(4-ethoxybenzoyl)amino]ethyl}-1-(4-methoxyphenyl)-2-methyl-5-phenyl-1H-pyrrole-3-carboxamide], for which the IC50 lay within 50 to 500 nM.
On the same count and under the same terms, the value for `CCc1cc(C(=O)CCC(=O)Nc2cc(-c3ccccc3)c(Cc3ccccc3)s2)ccc1OC` [Example 55, N-(5-benzyl-4-phenyl-2-thienyl)-4-(3-ethyl-4-methoxyphenyl)-4-oxobutanamide] was 50 to 500 nM.
Same read-out and setting: the value for `CCOc1cccc(C(=O)CCC(=O)Nc2nc(-c3ccccc3)c(Cc3ccccc3)s2)c1` [Example 5, N-(5-benzyl-4-phenyl-1,3-thiazol-2-yl)-4-(3-ethoxyphenyl)-4-oxobutanamide] was not above 10 nM.
For the compound `CCOC(=O)/C=C/c1cc(C(=O)CCC(=O)Nc2nc(-c3ccccc3)c(Cc3ccccc3)s2)ccc1OCC` [Example 30, ethyl (2E)-3-(5-{4-[(5-benzyl-4-phenyl-1,3-thiazol-2-yl)amino]-4-oxobutanoyl}-2-ethoxyphenyl)acrylate], the IC50 fell in the range of 10 to 50 nM.
The same measure, in the same setting: the value for `CCOc1ccc(C(=O)CCC(=O)Nc2cc(-c3ccccc3)c(CC3CCCCC3)s2)cc1OCC` [Example 46, N-(5-(cyclohexylmethyl)-4-phenyl-2-thienyl)-4-(3,4-diethoxyphenyl)-4-oxobutanamide] was 50 to 500 nM; that for `COc1ccc(C(=O)CCC(=O)Nc2cc(-c3ccccc3)c(Cc3ccccc3)s2)cc1CCCOC(C)=O` [Example 53, 3-(5-{4-[(5-benzyl-4-phenyl-2-thienyl)amino]-4-oxobutanoyl}-2-methoxyphenyl)propyl acetate] was 50 to 500 nM.
Same read-out and setting: in the case of `COc1ccc(C(=O)CCC(=O)Nc2cc(-c3ccccc3)c(Cc3ccccc3)s2)cc1OC` [Example 48, N-(5-benzyl-4-phenyl-2-thienyl)-4-(3,4-dimethoxyphenyl)-4-oxobutanamide] it was 10 to 50 nM.

Still in this experiment, the particulars now being: Table 2, 25 μM dioleoylglycerol, 25 μM [14C]-Oleoyl-CoA, 32° C., 15 min, read-out: DGAT inhibitory activity (according to IC50).
`CCOc1ccc(C(=O)CCC(=O)Nc2cc(-c3ccccc3C#N)cc(-c3ccccc3)n2)cc1OCC` [Example 144, N-[4-(2-cyanophenyl)-6-phenylpyridin-2-yl]-4-(3,4-diethoxyphenyl)-4-oxobutanamide]: the IC50 was not above 10 nM.
On the same count and under the same terms, in the case of `CCOc1ccc(C(=O)CCC(=O)Nc2cc(-c3ccccc3)c(Cc3ccccc3)s2)cc1Cl` [Example 70, N-(5-benzyl-4-phenyl-2-thienyl)-4-(3-chloro-4-ethoxyphenyl)-4-oxobutanamide] it was 50 to 500 nM.
Still for that read-out and setting: the value for `O=C(CCC(=O)c1ccc2c(c1)OCCCO2)Nc1nc(-c2ccccc2)c(Cc2ccccc2)s1` [Example 68, N-(5-benzyl-4-phenyl-1,3-thiazol-2-yl)-4-(3,4-dihydro-2H-1,5-benzodioxepin-7-yl)-4-oxobutanamide] was 10 to 50 nM; that for `CCCCCC/C=C/c1cc(NC(=O)CCC(=O)c2ccc3c(c2)CCO3)nc(-c2ccccc2)c1` [Example 184, 4-(2,3-dihydro-1-benzofuran-5-yl)-N-{4-[(1E)-octa-1-en-1-yl]-6-phenylpyridin-2-yl}-4-oxobutanamide] was 500 to 10000 nM; that for `O=C(CCC(=O)c1ccc2c(c1)CCO2)Nc1cc(-c2ccccc2C(=O)O)cc(-c2ccccc2)n1` [Example 180, 2-(2-{[4-(2,3-dihydro-1-benzofuran-5-yl)-4-oxobutanoyl]amino}-6-phenylpyridin-4-yl)benzoic acid] was 500 to 10000 nM.
Same read-out and setting: the value for `O=C(CCC(=O)c1ccc2c(c1)CCO2)Nc1cc(-c2ccccc2CO)cc(-c2ccccc2)n1` [Example 179, 4-(2,3-dihydro-1-benzofuran-5-yl)-N-{4-[2-(hydroxymethyl)phenyl]-6-phenylpyridin-2-yl}-4-oxobutanamide] was 50 to 500 nM; that for `N#Cc1cccc(-c2cc(NC(=O)CCC(=O)c3ccc4c(c3)CCO4)nc(-c3ccccc3)c2)c1` [Example 163, N-[4-(3-cyanophenyl)-6-phenylpyridin-2-yl]-4-(2,3-dihydro-1-benzofuran-5-yl)-4-oxobutanamide] was 50 to 500 nM.
Take `CCOc1ccc(C(=O)CCC(=O)Nc2cc(-c3ccc(C)cc3)c3cc(Br)ccc3n2)cc1OCC` [Example 76, N-[6-bromo-4-(4-methylphenyl)quinolin-2-yl]-4-(3,4-diethoxyphenyl)-4-oxobutanamide]: the IC50 fell in the range of 10 to 50 nM.
The same measure, in the same setting: in the case of `CCOc1ccc(C(=O)CCC(=O)Nc2cc(-c3ccc(CO)cc3)cc(-c3ccccc3)n2)cc1OCC` [Example 124, 4-(3,4-diethoxyphenyl)-N-{4-[4-(hydroxymethyl)phenyl]-6-phenylpyridin-2-yl}-4-oxobutanamide] it was 10 to 50 nM; in that of `CCCCCC/C=C/c1cc(NC(=O)CCC(=O)c2ccc(OCC)c(OCC)c2)nc(-c2ccccc2)c1` [Example 152, 4-(3,4-diethoxyphenyl)-N-{4-[(1E)-octa-1-en-1-yl]-6-phenylpyridin-2-yl}-4-oxobutanamide], 500 to 10000 nM.
On to `CCOc1ccc(C(=O)CCC(=O)Nc2cc(-c3ccc(OCCN4CCOCC4)cc3)c3ccccc3n2)cc1OCC` [Example 90, 4-(3,4-diethoxyphenyl)-N-{4-[4-(2-(morpholin-4-yl)ethoxy)phenyl]quinolin-2-yl}-4-oxobutanamide], for which the IC50 was 50 to 500 nM.
For `O=C(CCC(=O)c1ccc2c(c1)CCO2)Nc1cc(-c2cccc(O)c2)cc(-c2ccccc2)n1` [Example 165, 4-(2,3-dihydro-1-benzofuran-5-yl)-N-[4-(3-hydroxyphenyl)-6-phenylpyridin-2-yl]-4-oxobutanamide], the IC50 lay within 10 to 50 nM.
On the same count and under the same terms, in the case of `CCOc1ccc(C(=O)CCC(=O)Nc2cc3ccccc3c(-c3ccccc3)n2)cc1OCC` [Example 84, 4-(3,4-diethoxyphenyl)-4-oxo-N-(1-phenylisoquinolin-3-yl)butanamide] it was 500 to 10000 nM; in that of `CCOc1ccc(C(=O)CCC(=O)Nc2cc(-c3cccc(CCCO)c3)cc(-c3ccccc3)n2)cc1OCC` [Example 137, 4-(3,4-diethoxyphenyl)-N-{4-[3-(3-hydroxypropyl)phenyl]-6-phenylpyridin-2-yl}-4-oxobutanamide], 50 to 500 nM.
Turning to `CCOc1ccc(C(=O)CCC(=O)Nc2cc(-c3ccccc3)cc(Cc3ccccc3)n2)cc1OCC` [Example 95, N-(6-benzyl-4-phenylpyridin-2-yl)-4-(3,4-diethoxyphenyl)-4-oxobutanamide], the IC50 lay in the range of 50 to 500 nM.
As to `O=C(CCC(=O)c1ccc2c(c1)CCO2)Nc1cc(-c2cccnc2)cc(-c2ccccc2)n1` [Example 114, 4-(2,3-dihydro-1-benzofuran-5-yl)-4-oxo-N-(6′-phenyl-3,4′-bipyridine-2′-yl)butanamide], the IC50 fell in the range of 50 to 500 nM.
Same read-out and setting: in the case of `CCOc1ccc(C(=O)CCC(=O)Nc2cc(-c3ccc(C(=O)O)cc3)cc(-c3ccccc3)n2)cc1OCC` [Example 113, 4-(2-{[4-(3,4-diethoxyphenyl)-4-oxobutanoyl]amino}-6-phenylpyridin-4-yl)benzoic acid] it was 500 to 10000 nM; in that of `CCOc1ccc(C(=O)CCC(=O)Nc2cc(-c3cccc(C(=O)OC)c3)cc(-c3ccccc3)n2)cc1OCC` [Example 139, methyl 3-(2-{[4-(3,4-diethoxyphenyl)-4-oxobutanoyl]amino}-6-phenylpyridin-4-yl)benzoate], 500 to 10000 nM.
The same measure, in the same setting: the value for `CCOc1ccc(C(=O)CCC(=O)Nc2cc(-c3ccccc3)c3ccc(CCC(=O)OC(C)(C)C)cc3n2)cc1OCC` [Example 87, tert-butyl 3-(2-{[4-(3,4-diethoxyphenyl)-4-oxobutanoyl]amino}-4-phenylquinoline-7-yl)propanoate] was 10 to 50 nM.
The same measure, in the same setting: in the case of `CCOc1ccc(C(=O)CCC(=O)Nc2cc(-c3ccc(CCC(=O)O)cc3)cc(-c3ccccc3)n2)cc1OCC` [Example 125, 3-[4-(2-{[4-(3,4-diethoxyphenyl)-4-oxobutanoyl]amino}-6-phenylpyridin-4-yl)phenyl]propanoic acid] it was 500 to 10000 nM.

A word on the IC50: it is the concentration that gives 50% inhibition.
